Read-outs that look alike come from different tables or passages of the source.
Legend:
[1] = test system: α-glucoside hydrolase (α-glucosidase); assay: α-glucoside hydrolase / α-glucosidase inhibitory activity, in words; type: biochemical; settings: found by the inventors
[2] = test system: α-glucoside hydrolase (α-glucosidase); settings: earlier reports; cited from earlier work

Row | Compound | α-glucoside hydrolase suppressing / α-glucosidase inhibitory activity [1] | α-glucoside hydrolase suppressing / α-glucosidase inhibitory activity [2]
1 | N[C@H]1C[C@H](CO)[C@@H](O)[C@H](O)[C@H]1O [validamine] | possesses a highly valuable action of suppressing the function of α-glucoside hydrolase | –
2 | C[C@H]1O[C@H](O[C@H]2[C@H](O)[C@@H](O)[C@@H](O[C@H]3[C@H](O)[C@@H](O)[C@@H](O[C@H]4[C@H](O)[C@@H](O)[C@@H](O[C@H]5O[C@H](CO)[C@@H](O)[C@H](O)[C@H]5O)O[C@@H]4CO)O[C@@H]3CO)O[C@@H]2CO)[C@H](O)[C@@H](O)[C@@H]1N[C@H]1C=C(CO)[C@@H](O[C@H]2O[C@H](CO)[C@@H](O[C@H]3O[C@H](C)[C@@H](NC4C=C(CO)[C@@H](O[C@H]5O[C@H](CO)[C@@H](O[C@H]6O[C@H](C)[C@@H](NC7C=C(CO)[C@@H](O)[C@H](O)[C@H]7O)[C@H](O)[C@H]6O)[C@H](O)[C@H]5O)[C@H](O)[C@H]4O)[C@H](O)[C@H]3O)[C@H](O)[C@H]2O)[C@H](O)[C@H]1O (some centres unmarked) [Trestatin C] | – | far from being satisfactory
3 | N[C@H]1C[C@](O)(CO)[C@@H](O)[C@H](O)[C@H]1O [valiolamine, 1L(1S)-(1(OH),2,4,5/1,3)-5-amino-1-hydroxymethyl-1,2,3,4-cyclohexanetetraol] | – | possesses α-glucosidase inhibitory activity
4 | C[C@H]1O[C@H](O[C@@H]2[C@H](O)[C@@H](O)[C@@H](O[C@@H]3[C@H](O)[C@@H](O)[C@@H](O[C@@H]4[C@H](O)[C@H](O)[C@@H](O[C@H]5O[C@H](CO)[C@H](O)[C@H](O)[C@H]5O)O[C@@H]4CO)O[C@@H]3CO)O[C@H]2CO)[C@@H](O)[C@@H](O)[C@@H]1N[C@@H]1C=C(CO)[C@@H](O)[C@@H](O)[C@@H]1O (stereo in doubt) [Trestatin B] | – | far from being satisfactory
5 | C[C@H]1O[C@H](O[C@@H]2[C@H](O)[C@H](O)[C@@H](O[C@@H]3[C@H](O)[C@@H](O)[C@@H](O[C@@H]4[C@H](O)[C@H](O)[C@@H](O[C@H]5O[C@@H](CO)[C@H](O)[C@H](O)[C@H]5O)O[C@@H]4CO)O[C@@H]3CO)O[C@H]2CO)[C@H](O)[C@@H](O)[C@@H]1N[C@H]1C=C(CO)[C@@H](O[C@H]2O[C@H](CO)[C@H](O[C@H]3O[C@H](C)[C@@H](N[C@H]4C=C(CO)[C@@H](O)[C@H](O)[C@H]4O)[C@H](O)[C@H]3O)[C@H](O)[C@H]2O)[C@H](O)[C@H]1O (stereo in doubt) [Trestatin A] | – | far from being satisfactory
